Data as given in ChEMBL document CHEMBL1255515, “Design of a series of bicyclic HIV-1 integrase inhibitors. Part 2: azoles: effective metal chelators” (Bioorg Med Chem Lett, 2010).

Assays:
[1] = target: Human immunodeficiency virus type 1 integrase (Human immunodeficiency virus 1, UniProt Q7ZJM1); assay: Inhibition of HIV-1 integrase-mediated 3'-processing and strand transfer activity
[2] = tested on: Human immunodeficiency virus 1; assay: Antiviral activity against HIV1 by cell based luciferase assay; type: functional, organism-based
[3] = tested on: Human immunodeficiency virus 1; assay: Antiviral activity against HIV1 assessed as inhibition of viral replication after 6 days by cell based p24 antigen assay; details: Human immunodeficiency virus 1, 144 h
[4] = tested on: Human immunodeficiency virus 1; assay: Antiviral activity against HIV1 by cell based luciferase assay in presence of 50% serum; type: functional

Chain of Human immunodeficiency virus type 1 integrase (Q7ZJM1 whole entry): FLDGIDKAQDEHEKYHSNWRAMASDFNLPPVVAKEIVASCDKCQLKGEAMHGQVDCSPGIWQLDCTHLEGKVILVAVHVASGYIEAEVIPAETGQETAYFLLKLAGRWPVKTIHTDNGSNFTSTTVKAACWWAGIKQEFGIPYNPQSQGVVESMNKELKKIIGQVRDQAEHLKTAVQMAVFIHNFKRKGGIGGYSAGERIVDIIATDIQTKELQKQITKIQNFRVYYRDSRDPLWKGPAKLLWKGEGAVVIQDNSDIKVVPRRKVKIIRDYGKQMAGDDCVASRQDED

Compound | IC50 [1] | EC50 [2] | EC50 [3] | fold change (FC) [4]
O=c1c(O)c(-c2ncc(Cc3ccc(F)cc3)s2)nc2c(N3CCCS3(=O)=O)cc(N3CCOCC3)cn12 | 36 nM | 11.5 nM | – | –
O=c1c(O)c(-c2ncc(Cc3ccc(F)cc3)s2)nc2ccc(N3CCOCC3)cn12 | 20 nM | 32 nM | 16.5 nM | –
O=c1c(O)c(-c2ncc(Cc3ccc(F)cc3)s2)nc2c(Br)cc(N3CCOCC3)cn12 | 42 nM | 14 nM | 4.35 nM | –
O=C(NCc1ccc(F)cc1)c1nc2ccc(N3CCOCC3)cn2c(=O)c1O | 775 nM | 215 nM | 28 nM | –
O=c1c(O)c(-c2nnc(Cc3ccc(F)cc3)o2)nc2ccc(N3CCOCC3)cn12 | 310 nM | – | 215 nM | –
O=c1c(O)c(-c2noc(Cc3ccc(F)cc3)n2)nc2ccc(N3CCOCC3)cn12 | 450 nM | – | 99 nM | –
O=c1c(O)c(-c2nnc(Cc3ccc(F)cc3)[nH]2)nc2ccc(N3CCOCC3)cn12 | – | 198 nM | – | –
O=c1c(O)c(-c2nnc(Cc3ccc(F)cc3)s2)nc2ccc(N3CCOCC3)cn12 | 225 nM | – | 14 nM | –
O=c1c(O)c(-c2nc(Cc3ccc(F)cc3)no2)nc2ccc(N3CCOCC3)cn12 | > 10000 nM | > 1000 nM | – | –
O=c1c(O)c(-c2ncc(Cc3ccc(F)cc3)o2)nc2ccc(N3CCOCC3)cn12 | 59 nM | 21.5 nM | 6 nM | –
O=c1c(O)c(-c2ncc(Cc3ccc(F)cc3)[nH]2)nc2ccc(N3CCOCC3)cn12 | 45 nM | 62 nM | – | –
O=c1c(O)c(-c2ncc(Cc3ccc(F)cc3)o2)nc2c(I)cc(N3CCOCC3)cn12 | 170 nM | 9 nM | 2.6 nM | –
O=c1c(O)c(-c2ncc(Cc3ccc(F)cc3)[nH]2)nc2c(Br)cc(N3CCOCC3)cn12 | – | 29 nM | – | –
O=c1c(O)c(-c2ncc(Cc3ccc(F)cc3)o2)nc2c(N3CCCS3(=O)=O)cc(N3CCOCC3)cn12 | – | > 1000 nM | – | –
O=c1c(O)c(-c2ncc(Cc3ccc(F)cc3)[nH]2)nc2c(N3CCCS3(=O)=O)cc(N3CCOCC3)cn12 | 95 nM | > 1000 nM | – | –
CN1CCN(c2cc(N3CCOCC3)cn3c(=O)c(O)c(-c4ncc(Cc5ccc(F)cc5)[nH]4)nc23)S1(=O)=O | 70 nM | 11 nM | – | –
O=C1OCCN1c1cc(N2CCOCC2)cn2c(=O)c(O)c(-c3ncc(Cc4ccc(F)cc4)[nH]3)nc12 | 35 nM | 64 nM | – | –
O=C1CCCN1c1cc(N2CCOCC2)cn2c(=O)c(O)c(-c3ncc(Cc4ccc(F)cc4)[nH]3)nc12 | 47 nM | 39 nM | – | –
CCN(C(=O)C(=O)N(C)C)c1cc(N2CCOCC2)cn2c(=O)c(O)c(-c3ncc(Cc4ccc(F)cc4)[nH]3)nc12 | – | 86 nM | – | –
CC(C)N1CCN(c2cc(N3CCOCC3)cn3c(=O)c(O)c(-c4ncc(Cc5ccc(F)cc5)[nH]4)nc23)C1=O | – | 6 nM | – | <3
